Non-standard residues stand in square brackets, D forms with d. No end group written: not given here. Phe(4-NH2) = Nc1ccc(C[C@H](N)C(=O)O)cc1
Legend:
[1] = system: Rat Peritoneal Macrophages; test: Phagocytosis of opsonized yeast by rat peritoneal macrophages; assay type: cell-based, Sprague Dawley rats
Description: Resident peritoneal macrophages have very little phagocytic activity. Exposure of macrophages to inflammatory or activating agents will increase this macrophage function. Resident peritoneal macrophages were harvested from C57B1/6 mice or Sprague Dawley rats and resuspended at a concentration of 1×10^6 cells/ml in phosphate buffered saline (PBS). Five separate 0.5 ml cell aliquots were placed on a glass coverslip in a 35 mm petri dish. Prior to incubation, either 0.5 ml of PBS, AII, or AII analogues or fragments at between 1-1000 ug/ml final concentration was added to the individual cover slips. The dishes containing the cover slips were then incubated at 37° C. for 4 hours, after which the cover slips were washed 3 to 6 times with PBS. Opsonized yeast particles (Sigma Chemical Co.) (yeast opsonized with adult serum from the same species as that under study) were added to the cover slips and incubated for 2 hours, after which the cover slips were again washed with PBS and inverted onto a glass slide. The number of macrophages that ingested yeast and the number of yeast per macrophage ingested was then determined microscopically. At least 100 macrophages per coverslip were counted. The data from this study are summarized in Tables 3 and 4 and FIGS. 1 and 2.

[2] = system: human peripheral blood mononuclear cells (PBMC); test: Respiratory burst (hydrogen peroxide generation), human PBMC; assay type: cell-based; details: alone and in response to PMA 10 ng/ml; 4 hours exposure
Description: The respiratory burst of leukocytes (macrophages and polymorphonuclear neutrophils) is one component of the mediator system used to kill bacteria. As with phagocytosis, the level of this respiratory burst activity in resident macrophages is low. […] Studies were conducted to assess the effect of in vitro exposure of murine or rat peritoneal macrophages and human peripheral blood mononuclear cells (PBMC) to various concentrations of AII on the capacity to generate hydrogen peroxide via the respiratory burst system. For the human studies, five different donors were examined.
The murine or rat peritoneal cells were harvested by lavage with 5-15 ml of cold PBS with 0.5% bovine serum albumin. The human PBMC were harvested by venipuncture from normal human volunteers and isolated from peripheral blood by Ficoll Hypaque density centrifugation. After isolation, the cells were resuspended at 1×10^6 cells/ml and placed at 100 μl per well into 96 well plates. The cells were incubated with various concentrations of AII or AII analogues for 4 hours at 37° C. The cells were then preloaded with a fluorescent probe for hydrogen peroxide, 2,7 dichlorofluorescein acetate, which is nonfluorescent in the absence of hydrogen peroxide. Fifteen minutes later, 10 ng/ml of phorbol myristate acetate (+PMA) or PBS (−PMA) was added to stimulate the production of hydrogen peroxide. One hour after stimulation the level of fluorescence produced was measured on a Cytofluor 2350 multiwell fluorometer.

[3] = Test of AII fragments for effectiveness (method not described)
[4] = system: AT2 receptor; details: experimental models tested; cited from earlier work

Substance	#/Cell ([1]; peptide 100 μg/ml)	% w/Yeast ([1]; peptide 100 μg/ml) [%]	Number of Macrophages with Yeast (Yeast Number) 0 ([1]; peptide 100 μg/ml)	Number of Macrophages with Yeast (Yeast Number) 1-3 ([1]; peptide 100 μg/ml)	Number of Macrophages with Yeast (Yeast Number) 4-6 ([1]; peptide 100 μg/ml)	ability to generate hydrogen peroxide (respiratory burst) [2]	#/Cell ([1]; peptide 1000 μg/ml)	% w/Yeast ([1]; peptide 1000 μg/ml) [%]	Number of Macrophages with Yeast (Yeast Number) 1-3 ([1]; peptide 1000 μg/ml)	Number of Macrophages with Yeast (Yeast Number) 4-6 ([1]; peptide 1000 μg/ml)	effectiveness [3]	binding characteristics [4]
DRVYIHPI [GSD 28]	0.02	1.0	100	1	0	an increase in the respiratory burst capacity was observed						
RVYAHPF [GSD 22A]	0.59	23.7	100	26	5	an increase in the respiratory burst capacity was observed	0.40	18.7	22	1		
Tyr-Ile-His-Pro-Phe (YIHPF; printed: Tyr-Ile-His-Pro-Phe) [AII(4-8)]											found not to be effective	
Asp-Arg-Val-Tyr-Ile-His-Pro (DRVYIHP) [AII(1-7)]						an increase in the respiratory burst capacity was observed						
DRPYIHPF [GSD 24B]	0.58	23.1	100	25	5	an increase in the respiratory burst capacity was observed	0.18	9.1	10	0		
His-Pro-Phe (HPF) [AII(6-8)]											found not to be effective	
Asp-Arg-Val-Tyr-Ile-Xaa-Pro-Phe (DRVYI[Phe(4-NH2)]PF) [(p-NH2-Phe)6-AII]												comparable to AT2 antagonists

— patent publication US7744927B2, “Methods of promoting hematopoietic and mesenchymal cell proliferation and differentiation” (University of Southern California, priority 1997, dated 2010)
